Measured values: ChEMBL document CHEMBL4673241, “Cannabitwinol, a Dimeric Phytocannabinoid from Hemp, Cannabis sativa L., Is a Selective Thermo-TRP Modulator” (J Nat Prod, 2020)

Columns and labels:
Format in all cases: cell-based
[1] = target: Transient receptor potential cation channel subfamily V member 4 (Rattus norvegicus) (UniProt Q9ERZ8); assay: Agonist activity at rat TRPV4 stably transfected in HEK293 cells assessed as increase in calcium influx by Fluo-4-AM dye based spectrofluorimetric method relative to ionomycin
Sequence of Transient receptor potential cation channel subfamily V member 4 (Rattus norvegicus) (Q9ERZ8 whole entry): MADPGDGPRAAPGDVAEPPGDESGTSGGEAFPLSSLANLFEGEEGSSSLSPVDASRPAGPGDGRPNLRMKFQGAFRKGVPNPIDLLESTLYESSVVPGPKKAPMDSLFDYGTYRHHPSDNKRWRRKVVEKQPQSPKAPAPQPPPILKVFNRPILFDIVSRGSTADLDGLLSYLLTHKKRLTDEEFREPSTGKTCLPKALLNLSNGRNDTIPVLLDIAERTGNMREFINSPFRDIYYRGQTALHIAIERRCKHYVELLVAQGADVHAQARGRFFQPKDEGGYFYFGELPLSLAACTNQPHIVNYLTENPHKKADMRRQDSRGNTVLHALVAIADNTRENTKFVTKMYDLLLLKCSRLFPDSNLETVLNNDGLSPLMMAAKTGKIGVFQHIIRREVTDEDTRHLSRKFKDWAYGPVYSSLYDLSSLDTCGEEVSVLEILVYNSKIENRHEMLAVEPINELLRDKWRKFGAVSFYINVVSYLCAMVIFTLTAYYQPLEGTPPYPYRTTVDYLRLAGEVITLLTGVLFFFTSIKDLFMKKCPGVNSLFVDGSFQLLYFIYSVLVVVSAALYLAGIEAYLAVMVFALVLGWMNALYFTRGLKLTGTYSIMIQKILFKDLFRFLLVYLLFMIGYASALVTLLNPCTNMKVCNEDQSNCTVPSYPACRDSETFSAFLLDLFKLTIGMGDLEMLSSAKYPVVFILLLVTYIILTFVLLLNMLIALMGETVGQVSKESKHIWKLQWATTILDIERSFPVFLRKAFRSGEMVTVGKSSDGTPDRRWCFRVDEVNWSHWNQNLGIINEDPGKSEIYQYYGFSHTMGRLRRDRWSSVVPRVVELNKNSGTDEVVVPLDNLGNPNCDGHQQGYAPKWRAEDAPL

[2] = target: T1, Transient receptor potential cation channel subfamily V member 2 (Rattus norvegicus) (UniProt Q9WUD2); assay: Agonist activity at rat TRPV2 stably transfected in HEK293 cells assessed as increase in calcium influx by Fluo-4-AM dye based spectrofluorimetric method relative to ionomycin
T1 sequence (whole entry): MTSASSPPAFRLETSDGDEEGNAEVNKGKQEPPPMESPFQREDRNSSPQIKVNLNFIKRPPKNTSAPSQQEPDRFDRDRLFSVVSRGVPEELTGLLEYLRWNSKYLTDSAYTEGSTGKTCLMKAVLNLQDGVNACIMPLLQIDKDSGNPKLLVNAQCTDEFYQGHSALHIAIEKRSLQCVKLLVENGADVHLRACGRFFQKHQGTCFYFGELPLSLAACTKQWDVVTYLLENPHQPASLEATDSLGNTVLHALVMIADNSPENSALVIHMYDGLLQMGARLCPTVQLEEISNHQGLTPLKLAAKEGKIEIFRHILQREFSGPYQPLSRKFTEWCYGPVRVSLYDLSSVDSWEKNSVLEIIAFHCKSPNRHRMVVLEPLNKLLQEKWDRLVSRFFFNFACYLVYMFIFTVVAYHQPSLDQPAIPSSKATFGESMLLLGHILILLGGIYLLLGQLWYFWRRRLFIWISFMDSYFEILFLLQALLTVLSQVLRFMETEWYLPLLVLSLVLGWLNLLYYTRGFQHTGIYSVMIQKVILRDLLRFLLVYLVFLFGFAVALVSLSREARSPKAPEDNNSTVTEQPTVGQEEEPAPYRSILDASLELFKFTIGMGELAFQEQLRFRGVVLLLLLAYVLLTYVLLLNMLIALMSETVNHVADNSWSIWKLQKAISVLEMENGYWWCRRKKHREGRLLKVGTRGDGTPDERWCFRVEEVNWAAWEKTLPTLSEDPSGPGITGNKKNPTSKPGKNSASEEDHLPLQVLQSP

[3] = target: T2, Transient receptor potential cation channel subfamily V member 4 (Rattus norvegicus, UniProt Q9ERZ8); assay: Antagonist activity at rat TRPV4 expressed in HEK293 cells assessed as inhibition of GSK1016790A-induced Ca2+ response preincubated for 5 mins followed by GSK1016790A addition by Fluo-4AM dye based fluorescence assay
T2 sequence (Q9ERZ8 whole entry): as the sequence (Q9ERZ8 whole entry) above

[4] = target: Transient receptor potential cation channel subfamily M member 8 (Rattus norvegicus, UniProt Q8R455); assay: Antagonist activity at rat TRPM8 expressed in HEK293 cells assessed as inhibition of icilin-induced Ca2+ response preincubated for 5 mins followed by icilin addition by Fluo-4AM dye based fluorescence assay
Sequence of Transient receptor potential cation channel subfamily M member 8 (Q8R455 whole entry): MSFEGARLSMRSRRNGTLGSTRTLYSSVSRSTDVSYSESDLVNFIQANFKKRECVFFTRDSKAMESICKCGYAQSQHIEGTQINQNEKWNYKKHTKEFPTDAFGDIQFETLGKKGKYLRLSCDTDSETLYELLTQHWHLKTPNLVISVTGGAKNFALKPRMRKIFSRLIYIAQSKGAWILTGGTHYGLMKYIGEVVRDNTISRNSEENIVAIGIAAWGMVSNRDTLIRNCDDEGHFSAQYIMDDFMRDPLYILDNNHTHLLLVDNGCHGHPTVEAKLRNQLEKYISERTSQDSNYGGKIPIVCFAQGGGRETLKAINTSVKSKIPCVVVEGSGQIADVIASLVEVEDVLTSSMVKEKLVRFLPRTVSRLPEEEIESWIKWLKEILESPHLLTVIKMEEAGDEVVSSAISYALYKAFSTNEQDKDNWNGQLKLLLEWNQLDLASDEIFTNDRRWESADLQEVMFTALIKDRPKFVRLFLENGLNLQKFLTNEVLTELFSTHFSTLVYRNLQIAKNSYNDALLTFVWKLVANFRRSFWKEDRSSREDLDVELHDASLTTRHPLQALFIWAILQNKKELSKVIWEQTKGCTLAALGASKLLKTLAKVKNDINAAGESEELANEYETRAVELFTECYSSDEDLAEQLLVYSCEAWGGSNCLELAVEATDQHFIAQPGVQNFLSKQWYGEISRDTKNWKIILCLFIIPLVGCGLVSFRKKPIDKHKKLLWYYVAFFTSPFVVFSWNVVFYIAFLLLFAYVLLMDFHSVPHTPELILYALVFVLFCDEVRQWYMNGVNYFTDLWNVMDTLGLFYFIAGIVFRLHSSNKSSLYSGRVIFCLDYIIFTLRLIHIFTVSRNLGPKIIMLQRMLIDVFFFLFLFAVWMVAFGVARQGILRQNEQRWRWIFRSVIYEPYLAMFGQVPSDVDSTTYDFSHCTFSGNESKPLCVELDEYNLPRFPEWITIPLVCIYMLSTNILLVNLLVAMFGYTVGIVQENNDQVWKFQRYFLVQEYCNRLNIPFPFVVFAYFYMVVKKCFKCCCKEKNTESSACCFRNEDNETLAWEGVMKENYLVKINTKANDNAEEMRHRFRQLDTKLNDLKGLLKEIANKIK

[5] = target: T3, Transient receptor potential cation channel subfamily V member 2 (Rattus norvegicus, UniProt Q9WUD2); assay: Agonist activity at rat TRPV2 stably transfected in HEK293 cells assessed as increase in calcium influx in presence of ionomycin by Fluo-4-AM dye based spectrofluorimetric method
T3 sequence (Q9WUD2 whole entry): T1 sequence (whole entry)

[6] = target: T4, Transient receptor potential cation channel subfamily A member 1 (Rattus norvegicus, UniProt Q6RI86); assay: Antagonist activity at rat TRPA1 expressed in HEK293 cells assessed as inhibition of allylisothiocyanate-induced Ca2+ response preincubated for 5 mins followed by allylisothiocyanate addition by Fluo-4AM dye based fluorescence assay
T4 sequence (Q6RI86 whole entry): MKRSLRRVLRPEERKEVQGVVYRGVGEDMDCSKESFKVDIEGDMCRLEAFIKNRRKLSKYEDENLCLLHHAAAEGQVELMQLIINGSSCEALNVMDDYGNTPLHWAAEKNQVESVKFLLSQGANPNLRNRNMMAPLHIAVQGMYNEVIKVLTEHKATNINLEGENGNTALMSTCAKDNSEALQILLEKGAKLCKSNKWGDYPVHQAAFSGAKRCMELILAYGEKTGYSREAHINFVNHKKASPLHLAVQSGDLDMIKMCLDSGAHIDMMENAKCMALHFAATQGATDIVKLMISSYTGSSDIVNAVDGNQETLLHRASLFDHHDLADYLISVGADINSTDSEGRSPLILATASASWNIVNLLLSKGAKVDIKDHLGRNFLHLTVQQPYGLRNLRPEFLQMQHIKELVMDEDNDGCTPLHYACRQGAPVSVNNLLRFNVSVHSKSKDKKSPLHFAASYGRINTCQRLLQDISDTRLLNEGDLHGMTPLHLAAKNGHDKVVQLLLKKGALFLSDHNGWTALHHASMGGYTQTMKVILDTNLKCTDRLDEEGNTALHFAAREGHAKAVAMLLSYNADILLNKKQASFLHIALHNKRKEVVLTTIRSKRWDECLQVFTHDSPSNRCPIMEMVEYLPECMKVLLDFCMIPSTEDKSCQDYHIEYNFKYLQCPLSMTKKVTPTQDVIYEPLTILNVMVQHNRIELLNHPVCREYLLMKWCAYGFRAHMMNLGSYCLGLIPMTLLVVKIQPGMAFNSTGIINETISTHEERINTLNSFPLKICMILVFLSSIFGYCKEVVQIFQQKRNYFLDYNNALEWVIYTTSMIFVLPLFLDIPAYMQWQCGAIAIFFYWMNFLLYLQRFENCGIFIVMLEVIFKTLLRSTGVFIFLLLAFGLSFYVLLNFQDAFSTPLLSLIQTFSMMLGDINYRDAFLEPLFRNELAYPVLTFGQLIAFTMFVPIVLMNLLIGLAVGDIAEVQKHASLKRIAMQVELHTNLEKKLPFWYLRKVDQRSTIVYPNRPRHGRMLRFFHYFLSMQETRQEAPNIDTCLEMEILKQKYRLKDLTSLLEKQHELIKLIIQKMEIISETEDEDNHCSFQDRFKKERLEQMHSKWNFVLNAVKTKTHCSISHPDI

[7] = target: Transient receptor potential cation channel subfamily A member 1 (Rattus norvegicus) (UniProt Q6RI86); assay: Agonist activity at rat TRPA1 stably transfected in HEK293 cells assessed as increase in calcium influx by Fluo-4-AM dye based spectrofluorimetric method relative to allylisothiocyanate; details: filed as agonist
Sequence of Transient receptor potential cation channel subfamily A member 1 (Rattus norvegicus) (Q6RI86 whole entry): as above

[8] = target: T5, Transient receptor potential cation channel subfamily V member 1 (Homo sapiens, UniProt Q8NER1); assay: Agonist activity at human TRPV1 stably transfected in HEK293 cells assessed as increase in calcium influx by Fluo-4-AM dye based spectrofluorimetric method relative to ionomycin
T5 sequence (Q8NER1 whole entry): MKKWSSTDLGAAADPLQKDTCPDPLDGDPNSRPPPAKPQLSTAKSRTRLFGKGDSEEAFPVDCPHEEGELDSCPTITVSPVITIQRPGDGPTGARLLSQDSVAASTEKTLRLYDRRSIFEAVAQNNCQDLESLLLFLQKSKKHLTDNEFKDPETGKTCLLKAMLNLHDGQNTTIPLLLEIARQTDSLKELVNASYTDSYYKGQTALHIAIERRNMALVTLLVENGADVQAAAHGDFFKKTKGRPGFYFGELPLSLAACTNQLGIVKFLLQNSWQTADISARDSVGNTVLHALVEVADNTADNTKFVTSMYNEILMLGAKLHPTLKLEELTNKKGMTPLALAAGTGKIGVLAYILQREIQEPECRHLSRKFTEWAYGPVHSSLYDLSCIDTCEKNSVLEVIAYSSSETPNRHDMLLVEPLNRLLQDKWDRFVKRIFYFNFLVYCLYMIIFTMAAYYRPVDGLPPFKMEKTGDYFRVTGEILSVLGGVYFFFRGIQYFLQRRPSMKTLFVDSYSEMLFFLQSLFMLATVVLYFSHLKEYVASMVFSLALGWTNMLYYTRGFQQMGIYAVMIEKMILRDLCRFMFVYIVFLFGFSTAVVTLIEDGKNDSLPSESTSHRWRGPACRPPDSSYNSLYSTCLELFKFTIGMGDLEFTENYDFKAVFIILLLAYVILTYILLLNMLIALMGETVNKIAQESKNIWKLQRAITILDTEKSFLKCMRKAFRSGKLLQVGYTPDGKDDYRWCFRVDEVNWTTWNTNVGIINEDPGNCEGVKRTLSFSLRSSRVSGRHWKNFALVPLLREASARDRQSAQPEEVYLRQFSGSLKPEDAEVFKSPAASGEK

[9] = target: T6, Heat sensitive channel TRPV3 (Rattus norvegicus, UniProt Q4QYD9); assay: Agonist activity at rat TRPV3 stably transfected in HEK293 cells assessed as increase in calcium influx in presence of ionomycin by Fluo-4-AM dye based spectrofluorimetric method
T6 sequence (Q4QYD9 whole entry): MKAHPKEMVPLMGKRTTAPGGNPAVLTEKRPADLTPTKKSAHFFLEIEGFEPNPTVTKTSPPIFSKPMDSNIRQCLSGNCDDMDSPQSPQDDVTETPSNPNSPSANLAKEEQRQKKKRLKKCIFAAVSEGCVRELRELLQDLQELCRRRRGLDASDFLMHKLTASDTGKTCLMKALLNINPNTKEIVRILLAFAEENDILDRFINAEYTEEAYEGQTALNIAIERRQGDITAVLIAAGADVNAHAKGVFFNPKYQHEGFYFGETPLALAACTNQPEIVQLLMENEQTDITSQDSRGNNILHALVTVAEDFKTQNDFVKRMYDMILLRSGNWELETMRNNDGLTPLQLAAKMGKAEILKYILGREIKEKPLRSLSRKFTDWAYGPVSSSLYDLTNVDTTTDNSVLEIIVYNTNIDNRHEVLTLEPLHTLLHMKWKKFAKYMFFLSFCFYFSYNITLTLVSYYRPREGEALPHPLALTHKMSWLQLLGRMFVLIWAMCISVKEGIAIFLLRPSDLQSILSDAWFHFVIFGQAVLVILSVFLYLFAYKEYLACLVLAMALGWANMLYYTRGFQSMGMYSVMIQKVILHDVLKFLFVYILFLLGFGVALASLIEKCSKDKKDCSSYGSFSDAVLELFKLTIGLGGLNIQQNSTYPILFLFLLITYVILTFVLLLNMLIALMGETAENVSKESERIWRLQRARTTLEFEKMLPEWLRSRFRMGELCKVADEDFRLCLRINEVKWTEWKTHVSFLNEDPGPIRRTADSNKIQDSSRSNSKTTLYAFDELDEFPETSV

[10] = target: T4, Transient receptor potential cation channel subfamily A member 1; assay: Agonist activity at rat TRPA1 stably transfected in HEK293 cells assessed as increase in calcium influx in presence of allylisothiocyanate by Fluo-4-AM dye based spectrofluorimetric method
[11] = target: T5, Transient receptor potential cation channel subfamily V member 1; assay: Agonist activity at human TRPV1 stably transfected in HEK293 cells assessed as increase in calcium influx in presence of ionomycin by Fluo-4-AM dye based spectrofluorimetric method
[12] = target: T7, Heat sensitive channel TRPV3 (Rattus norvegicus) (UniProt Q4QYD9); assay: Agonist activity at rat TRPV3 stably transfected in HEK293 cells assessed as increase in calcium influx by Fluo-4-AM dye based spectrofluorimetric method relative to ionomycin; details: filed as agonist
T7 sequence (whole entry): T6 sequence (Q4QYD9 whole entry)

[13] = target: T6, Heat sensitive channel TRPV3; assay: Antagonist activity at rat TRPV3 expressed in HEK293 cells assessed as inhibition of thymol-induced Ca2+ response preincubated for 5 mins followed by thymol addition by Fluo-4AM dye based fluorescence assay
[14] = target: T2, Transient receptor potential cation channel subfamily V member 4; assay: Agonist activity at rat TRPV4 stably transfected in HEK293 cells assessed as increase in calcium influx in presence of ionomycin by Fluo-4-AM dye based spectrofluorimetric method
[15] = target: T3, Transient receptor potential cation channel subfamily V member 2; assay: Antagonist activity at rat TRPV2 expressed in HEK293 cells assessed as inhibition of LPC-induced Ca2+ response preincubated for 5 mins followed by LPC addition by Fluo-4AM dye based fluorescence assay
[16] = target: T5, Transient receptor potential cation channel subfamily V member 1; assay: Antagonist activity at human TRPV1 expressed in HEK293 cells assessed as inhibition of capsaicin-induced Ca2+ response preincubated for 5 mins followed by capsaicin addition by Fluo-4AM dye based fluorescence assay

SMILES | Efficacy [1] | Efficacy [2] | IC50 [3] | IC50 [4] | EC50 ([5]; hek293) | IC50 [6] | Efficacy [7] | Efficacy [8] | EC50 [9] | EC50 [10] | EC50 [11] | Efficacy [12] | IC50 [13] | EC50 [14] | IC50 [15] | IC50 [16] | Efficacy ([2]; filed as agonist) | EC50 ([5]; read-out: EC50) | Efficacy ([8]; filed as agonist)
C=C(C)[C@@H]1CCC(C)=C[C@H]1c1c(O)cc(CCCCC)c(Cc2c(CCCCC)cc(O)c([C@@H]3C=C(C)CC[C@H]3C(=C)C)c2O)c1O | 10.6% | < 10% | > 20 µM | 3.9 µM | Not Active | 4.9 µM | 96.7% | 12.3% | 4.6 µM | 3 µM | 4.5 µM | 66.5% | 11.8 µM | 6.2 µM | > 20 µM | > 20 µM | – | – | –
C=C(C)[C@@H]1CCC(C)=C[C@H]1c1c(O)cc(CCCCC)cc1O [CANNABIDIOL] | 15.2% | – | 5.9 µM | 2.8 µM | – | 0.45 µM | 109% | – | 0.51 µM | 0.48 µM | 4.1 µM | 53.6% | 0.75 µM | 0.9 µM | 1.1 µM | 3.7 µM | 67.5% | 1.2 µM | 78.4%
